Experimental data taken from ChEMBL document CHEMBL1136116 (Bioorg Med Chem Lett, 2003).

Tests used:
[1] = molecular target: Cyclin-dependent kinase 4/cyclin D (Homo sapiens, UniProt P11802); test: Inhibition of CDK4-Cyclin D; assay type: protein-complex assay
[2] = molecular target: Cyclin-dependent kinase 1/cyclin B (Homo sapiens, UniProt P06493); test: Inhibition of Cyclin-dependent kinase 1-cyclin B; assay type: protein-complex assay
[3] = molecular target: Cyclin-dependent kinase 2/cyclin E (Homo sapiens, UniProt P24941); test: Inhibitory activity against Cyclin-dependent kinase 2-cyclin E; assay type: protein-complex assay
[4] = test system: A2780; test: Cytotoxic effect on ovarian cancer cell line (A2780); assay type: functional, cell-based; conditions: Homo sapiens

Compound	IC50 [1]	IC50 [2]	IC50 [3]	IC50 [4]
CCCCOc1c(C(=O)NCC)cnc2[nH]ncc12	–	–	8100 nM	–
CCCCOc1c(C(=O)Cc2ccccc2)cnc2[nH]ncc12	–	–	> 1000 nM	–
CCCCOc1c(C(=O)c2cccnc2)cnc2[nH]ncc12	–	–	2400 nM	–
CCCCOc1c(S(=O)(=O)c2ccccc2)cnc2[nH]ncc12	–	–	520 nM	–
CCCCOc1c(C(=O)C2CC2)cnc2[nH]ncc12	–	–	2700 nM	–
CCCCOc1c(C(=O)Nc2ccccc2)cnc2[nH]ncc12	–	–	19000 nM	–
CCCCOc1c(C(=O)c2cccc(C)c2)cnc2[nH]ncc12	–	–	660 nM	–
CCCCOc1c(C(=O)OC)cnc2[nH]ncc12	–	–	> 10000 nM	–
CCCCOc1c(C(=O)c2c(C)cc(C)cc2C)cnc2[nH]ncc12	–	–	> 1000 nM	–
CCCCOc1c(C(C)=O)cnc2[nH]ncc12	–	–	> 1000 nM	–
CCCCOc1c(C(=O)c2ccccc2C)cnc2[nH]ncc12	–	410 nM	730 nM	–
CCCCOc1c(C(=O)c2ccccc2)cnc2[nH]ncc12 [SQ-67563]	> 25000 nM	–	–	–

Further lines, with some results ahead:

IC50 [1]	IC50 [2]	IC50 [3]	Compound	IC50 [4]
370 nM	17 nM	20 nM	CCCCOc1c(C(=O)c2c(F)cc(Br)cc2F)cnc2[nH]ncc12	–
230 nM	7 nM	22 nM	CCCCOc1c(C(=O)c2c(F)cc(OC)cc2F)cnc2[nH]ncc12	–
230 nM	6 nM	9 nM	CCCCOc1c(C(=O)c2c(F)cc(C)cc2F)c[nH]c2nncc1-2	760 nM
–	280 nM	180 nM	CCCCOc1c(C(=O)c2ccco2)cnc2[nH]ncc12	–
–	–	340 nM	CCCCOc1c([S+]([O-])c2ccccc2)cnc2[nH]ncc12 (stereo not given)	–
–	–	210 nM	CCCCOc1c(C(=O)c2ccc(C)cc2)cnc2[nH]ncc12	–
21000 nM	32 nM	64 nM	CCCCOc1c(C(=O)c2c(F)cccc2F)cnc2[nH]ncc12	–
–	450 nM	210 nM	CCCCOc1c(C(=O)c2nccs2)cnc2[nH]ncc12	–
24000 nM	360 nM	36 nM	CCCCOc1c(C(=O)c2ccccc2F)cnc2[nH]ncc12	–
310 nM	13 nM	27 nM	CCCCOc1c(C(=O)c2c(F)cc(Cl)cc2F)cnc2[nH]ncc12	–
–	230 nM	200 nM	CCCCOc1c(C(=O)c2cccs2)cnc2[nH]ncc12	–
